Experimental data as given in paper PMC9395504 (Investigational New Drugs, 2022).
“Also recorded” adds a separate entry of the source. Where two headings read alike, the source gives them in different places. Marks after values point to notes of the source that are not given here.

Experiments:
serum MIC-1 protein = conditions: single-agent AMG 232, cited from earlier work
[1] = Dose escalation (3+3+3): dose-limiting toxicity and maximum tolerated dose; assay type: in vivo, human; conditions: once daily, seven days of a 21-day cycle
Protocol: Trametinib, 2 mg once daily (both Arms), and dabrafenib, 150 mg twice daily (Arm 1 only), were subsequently started on day 8, cycle 1 (Fig. 1). Treatment was administered continuously in consecutive treatment cycles until disease progression, intolerability, or withdrawal of consent.
We defined the dose-limiting toxicity (DLT) period as the first 28 days of each dose-escalation cohort’s treatment cycle (DLT window). […] Non-hematologic DLTs included grade ≥3 nausea, vomiting, or diarrhea enduring >48 hours despite standard medical management, grade 3 fatigue persisting >7 days or grade 4 fatigue, any grade ≥3 metabolic laboratory abnormalities that are not controlled within 48 hours by standard medical management.

[2] = tested on: TP53-WT melanoma cell lines; parameters: method as in PMID 24810962; conditions: combined with inhibitors of PI3K or MAPK signaling pathway; cited from earlier work
[3] = Plasma pharmacokinetics of AMG 232 at steady state (LC-MS/MS, noncompartmental); assay type: in vivo, human; conditions: for AUC(0-t): read-out: AUC24hr
Text: The following PK parameters were estimated: maximum observed plasma concentration (Cmax), time to reach Cmax (tmax), area-under-the-plasma concentration-time curve (AUC), terminal phase half-life (t1/2,z), and apparent total body clearance (CL/F). We performed noncompartmental analyses for PK parameter estimation using Phoenix® WinNonlin® version 6.4 or later software (Certara™, Princeton, NJ). […] We prepared descriptive statistics, tables, and graphs using Phoenix® WinNonlin® and Prism version 9.1.1 (GraphPad Software, San Diego, CA).

[4] = tested on: TP53-WT patient-derived melanoma xenografts; conditions: 50 mg/kg, alone or combined with dabrafenib and trametinib; cited from earlier work
[5] = tested on: TP53-WT cancer xenograft models; conditions: daily oral administration; cited from earlier work
p53 pathway = conditions: cited from earlier work
[6] = human, plasma, oral, 120 mg, Cycle 1 Day 7, AMG 232 monotherapy, Arm 2, 120 mg, geometric mean (CV%)
[7] = human, plasma, oral, 120 mg, Cycle 2 Day 7, co-administered with T + D, Arm 1, 120 mg, geometric mean (CV%)
[8] = human, plasma, oral, 120 mg, Cycle 2 Day 7, co-administered with T, Arm 2, 120 mg, geometric mean (CV%)
[9] = human, plasma, oral, 180 mg, Cycle 1 Day 7, AMG 232 monotherapy, Arm 1, 180 mg, geometric mean (CV%)
[10] = human, plasma, oral, 180 mg, Cycle 2 Day 7, co-administered with T + D, Arm 1, 180 mg, geometric mean (CV%)
[11] = human, plasma, oral, 240 mg, Cycle 1 Day 7, AMG 232 monotherapy, Arm 2, 240 mg, geometric mean (CV%)
[12] = human, plasma, oral, 240 mg, Cycle 2 Day 7, co-administered with T, Arm 2, 240 mg, geometric mean, n = 2

## CC(C)[C@@H](CS(=O)(=O)C(C)C)N1C(=O)[C@@](C)(CC(=O)O)C[C@H](c2cccc(Cl)c2)[C@H]1c1ccc(Cl)cc1 [AMG 232]
Serum MIC-1 protein; daily
  biologically effective AMG 232 dose in humans: at least 240 mg
Serum MIC-1 protein
  daily dose at which significant increases in serum MIC-1 protein were seen: higher than 240 mg
[1]; Arm 1
  MTD of AMG 232 combined with dabrafenib plus trametinib: 120 mg
[1]; Arm 2
  MTD of AMG 232 combined with trametinib: 120 mg
[2]
  interaction in cell death: synergy
[3]; Cycle 1 Day 7, AMG 232 monotherapy, Arm 1, 120 mg, geometric mean (CV%)
  AUC24hr: 5140 (59.4%) n = 4 hr•ng/mL
[3]; Cycle 2 Day 7, co-administered with T, Arm 2, 180 mg, geometric mean (CV%)
  AUC24hr: 9410 (107.0%)^a n = 5 hr•ng/mL
[3]; cycle 2 day 7 vs cycle 1 day 7, Wilcoxon matched-pairs signed-rank test p>0.05
  Effect of trametinib ± dabrafenib on AMG 232 PK exposures (Cmax, AUC24hr): not significant; also recorded: not significantly altered
[3]; human, plasma, oral, 120 mg, Cycle 1 Day 7, AMG 232 monotherapy, Arm 1, 120 mg, geometric mean (CV%)
  Cmax: 491 ng/mL
[3]; [6]
  Cmax: 914 ng/mL
  AUC(0-t): 9810 ng·h/mL
[3]; [7]
  Cmax: 392 ng/mL
  AUC(0-t): 3140 ng·h/mL
[3]; [8]
  Cmax: 630 ng/mL
  AUC(0-t): 6740 ng·h/mL
[3]; [9]
  Cmax: 847 ng/mL
  AUC(0-t): 5890 ng·h/mL
[3]; human, plasma, oral, 180 mg, Cycle 1 Day 7, AMG 232 monotherapy, Arm 2, 180 mg, geometric mean (CV%)
  Cmax: 1250 ng/mL
[3]; [10]
  Cmax: 647 ng/mL
  AUC(0-t): 4750 ng·h/mL
[3]; human, plasma, oral, 180 mg, Cycle 2 Day 7, co-administered with T, Arm 2, 180 mg, geometric mean (CV%)
  Cmax: 1010 ng/mL
[3]; [11]
  Cmax: 3300 ng/mL
  AUC(0-t): 21100 ng·h/mL
[3]; [12]
  Cmax: 953 ng/mL
  AUC(0-t): 6280 ng·h/mL
[3]; human, plasma, oral, Cycle 2 Day 7, co-administered with T, Arm 2, 240 mg, median (min-max)
  Tmax: 1.5 h
[4]
  antitumor activity: demonstrated antitumor activity
[5]
  effective doses, dose-dependent antitumor activity: 9.1 to 78 mg/kg
p53 pathway
  doses with more consistent and pronounced effect on the p53 pathway: 25 to 100 mg/kg
p53 pathway; doses as low as
  lowest dose affecting the p53 pathway (upregulation of p21 and MIC-1): 5 mg/kg
